Test results: ChEMBL document CHEMBL4190316, “Synthesis and biological evaluation of 4-biphenylamino-5-halo-2(5H)-furanones as potential anticancer agents” (Eur J Med Chem, 2017)
The source made the active and inactive calls. The rule behind the calls is not given here.

Columns and labels:
C6 = assay: Cytotoxicity against rat C6 cells assessed as reduction in cell viability after 72 hrs by MTT assay; type: functional, cell-based; settings: C6, 72 h
HaCaT = assay: Cytotoxicity against human HaCaT cells assessed as reduction in cell viability after 72 hrs by MTT assay; type: cell-based
CNE = assay: Cytotoxicity against human CNE1 cells assessed as reduction in cell viability after 72 hrs by MTT assay; type: functional, cell-based
[1] = Cytotoxicity against human NCI-EC1 cells assessed as reduction in cell viability after 72 hrs by MTT assay; type: functional, cell-based
MDA-MB-231 = assay: Cytotoxicity against human MDA-MB-231 cells assessed as reduction in cell viability after 72 hrs by MTT assay; type: functional, cell-based; settings: MDA-MB-231, 72 h
MCF7 = assay: Cytotoxicity against human MCF7 cells assessed as reduction in cell viability after 72 hrs by MTT assay; type: functional, cell-based; settings: MCF7, 72 h
HepG2 = assay: Cytotoxicity against human HepG2 cells assessed as reduction in cell viability after 72 hrs by MTT assay; type: functional, cell-based; settings: HepG2, 72 h
[2] = Octanol-water partition coefficient, log P of the compound at 10 mM after 24 hrs by UV-vis spectroscopic method; type: physicochemical
Quadruplex DNA [3] = assay: Effect on conformation of c-Myc G-quadruplex DNA (unknown origin) at 1 mM measured every 3 mins by CD spectroscopic analysis; type: nucleic-acid assay
Quadruplex DNA [4] = assay: Binding affinity to c-Myc G-quadruplex DNA (unknown origin) at 20 uM incubated for 3 mins by electronic absorption spectra method; type: nucleic-acid assay
Quadruplex DNA [5] = assay: Binding affinity to c-Myc G-quadruplex DNA (unknown origin) assessed as hypochromism at 20 uM incubated for 3 mins by electronic absorption spectra method; type: nucleic-acid assay
Quadruplex DNA [6] = assay: Binding affinity to c-Myc G-quadruplex DNA (unknown origin) at 20 uM incubated for 2 mins by fluorescence emission spectra method; type: nucleic-acid assay

logP at 24 h, 10000 µM [2]	Activity (Quadruplex DNA [3])	K (Quadruplex DNA [4])	Activity (Quadruplex DNA [5])	Activity (Quadruplex DNA [6])	SMILES	IC50 (C6)	IC50 (HaCaT)	IC50 (CNE)	IC50 [1]	IC50 (MDA-MB-231)	IC50 (MCF7)	IC50 (HepG2)
1.31	inactive	9.4 ×10⁶ /M	17%	Active	CC(=O)OC1OC(=O)C(Br)=C1Nc1ccc(-c2ccccc2)cc1 (centres undefined)	44.4 µM	91.4 µM	81.7 µM	34.9 µM	60.2 µM	37.3 µM	27.4 µM
1.64					CCOC1OC(=O)C(Cl)=C1Nc1ccc(-c2ccc(N)cc2)cc1 (centres undefined)	49.6 µM	44.8 µM	> 100 µM		37.7 µM	> 100 µM	> 100 µM
